Measurements: BindingDB's records for doi:10.7270/Q2N014XN (Srmlsc, 2007)
Counter-ions that a name gives are not always drawn.

The molecules below were run against T1, Diphosphomevalonate decarboxylase (Streptococcus pneumoniae serotype 2 (strain D39 / NCTC 7466), UniProt A0A0H2ZN59) (assay: S. pneumoniae DPM-DC inhibitor potency, dose response, biochemical, PK/LDH-coupled NADH fluorescence, hexokinase coupling counter-screen (AID 550)). Conditions: not given.
T1 sequence (A0A0H2ZN59 whole entry): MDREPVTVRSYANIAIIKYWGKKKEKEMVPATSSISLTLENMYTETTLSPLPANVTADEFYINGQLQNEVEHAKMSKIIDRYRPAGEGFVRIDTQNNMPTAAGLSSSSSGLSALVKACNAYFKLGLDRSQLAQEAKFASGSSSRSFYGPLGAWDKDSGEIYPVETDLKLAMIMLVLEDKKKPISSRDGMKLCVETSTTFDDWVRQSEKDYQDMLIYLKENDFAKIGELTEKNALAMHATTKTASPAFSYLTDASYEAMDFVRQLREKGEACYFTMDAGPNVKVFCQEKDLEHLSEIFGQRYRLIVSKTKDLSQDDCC

| SMILES | IC50 [µM] |
| --- | --- |
| N#Cc1c(C(F)(F)F)cc(-c2ccco2)nc1SCc1ccncc1 [6-(2-furanyl)-2-(pyridin-4-ylmethylthio)-4-(trifluoromethyl)-3-pyridinecarbonitrile] | > 10000 |
| COc1ccc(-c2nn3c(-c4ccco4)nnc3s2)cc1OC [6-(3,4-dimethoxyphenyl)-3-(2-furanyl)-[1,2,4]triazolo[3,4-b][1,3,4]thiadiazole] | 235 |
| COc1ccc(-c2nn3c(-c4ccccn4)nnc3s2)cc1OC [6-(3,4-dimethoxyphenyl)-3-(2-pyridinyl)-[1,2,4]triazolo[3,4-b][1,3,4]thiadiazole] | 89.8 |
| COC(=O)C1=C(C)OC(=N)C(C#N)C1c1cc(OC)c(OCC(N)=O)cc1Cl (stereo not drawn) [6-Amino-4-(4-carbamoylmethoxy-2-chloro-5-methoxy-phenyl)-5-cyano-2-methyl-4H-pyran-3-carboxylic acid methyl ester] | > 10000 |
| CCn1c2ccccc2c2nc3cc(OC)c(OC)cc3nc21 [6-Ethyl-2,3-dimethoxy-6H-indolo[2,3-b]quinoxaline] | 30.6 |
| CC1(C)CC(=O)c2cc(OCC(=O)N3CCN(c4ccccc4F)CC3)ccc2O1 [6-[2-[4-(2-fluorophenyl)-1-piperazinyl]-2-oxoethoxy]-2,2-dimethyl-3,4-dihydro-2H-1-benzopyran-4-one] | 37 |
| CCOC(=O)c1c(C)n(OCc2ccccc2)c2ccc3c(n[o+]n3[O-])c12 [6-benzoxy-7-methyl-3-oxido-pyrrolo[2,3-g][2,1,3]benzoxadiazol-3-ium-8-carboxylic acid ethyl ester] | > 10000 |
| COCCn1nnnc1CN(Cc1cccnc1)Cc1cc2cc(OC)ccc2[nH]c1=O [6-methoxy-3-[[[1-(2-methoxyethyl)-5-tetrazolyl]methyl-(3-pyridinylmethyl)amino]methyl]-1H-quinolin-2-one] | > 10000 |
| COc1ccc2nc3oc(C(=O)NCc4cccs4)cc3cc2c1 [6-methoxy-N-(2-thenyl)furo[2,3-b]quinoline-2-carboxamide] | 13.9 |
| Cc1cc(N2CCN(C3CCCC3)CC2)n2nc(C)c(-c3ccccc3)c2n1 [7-(4-cyclopentyl-1-piperazinyl)-2,5-dimethyl-3-phenylpyrazolo[1,5-a]pyrimidine] | > 10000 |
| COC(=O)c1c(C(=O)OC)c2ccncn2c1Cl [7-Chloro-pyrrolo[1,2-c]pyrimidine-5,6-dicarboxylic acid dimethyl ester] | 26.8 |
| CC(C)(C)n1nnnc1C(c1cc2cc3c(cc2[nH]c1=O)OCO3)N1CCN(c2ccccc2)CC1 (stereo not drawn) [7-[(1-tert-butyl-1,2,3,4-tetrazol-5-yl)-(4-phenylpiperazin-1-yl)methyl]-5H-[1,3]dioxolo[4,5-g]quinolin-6-one] | 57 |
| O=c1[nH]c2cc3c(cc2cc1CN(CCCO)Cc1nnnn1Cc1ccc(F)cc1)OCO3 [7-[[[1-[(4-fluorophenyl)methyl]-1,2,3,4-tetrazol-5-yl]methyl-(3-oxidanylpropyl)amino]methyl]-5H-[1,3]dioxolo[4,5-g]quinolin-6-one] | 54.1 |
| Cc1cc(-c2ccccc2)nc2cc(C(N)=O)nn12 [7-methyl-5-phenyl-2-pyrazolo[1,5-a]pyrimidinecarboxamide] | > 10000 |
| CC1(C)Cc2nc3sc4c(=O)[nH]cnc4c3cc2CS1 [8,8-dimethyl-7,10-dihydro-8H-thiopyrano[3'',4'':5',6']pyrido[3',2':4,5]thieno[3,2-d]pyrimidin-4(3H)-one] | 108 |
| Cc1cccc(OCC(O)Cn2c(-n3nc(C)cc3C)nc3c2c(=O)[nH]c(=O)n3C)c1 (stereo not drawn) [8-(3,5-dimethylpyrazol-1-yl)-7-[2-hydroxy-3-(3-methylphenoxy)propyl]-3-methylpurine-2,6-dione] | > 10000 |
| O=C1CC(c2cccnc2)c2cc3c(cc2N1)OCO3 (stereo not drawn) [8-(3-pyridinyl)-7,8-dihydro-5H-[1,3]dioxolo[4,5-g]quinolin-6-one] | > 10000 |
| C/C=C/Cn1c(N(C)Cc2ccccc2)nc2c1c(=O)[nH]c(=O)n2C [8-[benzyl(methyl)amino]-7-[(E)-but-2-enyl]-3-methylpurine-2,6-dione] | > 10000 |
| COc1cccc2cc3c(=O)n(-c4ccccc4)nc-3oc12 [8-methoxy-2-phenyl-3-[1]benzopyrano[2,3-c]pyrazolone] | > 10000 |
| COc1ccc(-c2cc(C(F)(F)F)n3nc(C(=O)N4CCC5(CC4)OCCO5)cc3n2)cc1OC [8-{[5-(3,4-dimethoxyphenyl)-7-(trifluoromethyl)pyrazolo[1,5-a]pyrimidin-2-yl]carbonyl}-1,4-dioxa-8-azaspiro[4.5]decane] | 75.3 |
| CCn1c2c(c3cc(C(=O)O)ccc31)CCCC2=O [9-ethyl-1-oxo-2,3,4,9-tetrahydro-1H-carbazole-6-carboxylic acid] | 78.5 |
| Cc1ccc(S(=O)(=O)N2CCOCC(=O)NCCOCCNC(=O)COCC2)cc1 [16-(4-methylphenyl)sulfonyl-1,7,13-trioxa-4,10,16-triazacyclooctadecane-3,11-dione] | > 10000 |
| Cn1ncc2c(Nc3ccc(-c4ccccc4)cc3)ncnc21 [(1-methylpyrazolo[3,4-d]pyrimidin-4-yl)-(4-phenylphenyl)amine] | 53.7 |
| COc1cccc(C=Nn2c(C)nnc2C)c1OC [(2,3-dimethoxybenzylidene)-(3,5-dimethyl-1,2,4-triazol-4-yl)amine] | > 10000 |
| O=NC1=C(Cc2ccco2)CCC1 [(2E)-2-(2-furanylmethylidene)-1-cyclopentanone oxime] | > 10000 |
| CN(C)[C@@H]1C(=O)C(C(N)=O)C(=O)[C@@]2(O)C(=O)C3C(=O)c4c(O)cccc4[C@@](C)(O)[C@H]3[C@H](O)[C@@H]12 (stereo partly drawn) [(2E,4S,4aR,5S,5aR,6S,12aS)-2-[azanyl(oxidanyl)methylidene]-4-(dimethylamino)-6-methyl-5,6,10,11,12a-pentakis(oxidanyl)-4,4a,5,5a-tetrahydrotetracene-1,3,12-trione] | 36.8 |
| COc1cc2c(cc1OC)C(CC(=O)N1CCOCC1)=NC(C)(C)C2 [(2Z)-2-(6,7-dimethoxy-3,3-dimethyl-2,4-dihydroisoquinolin-1-ylidene)-1-(4-morpholinyl)ethanone;hydrochloride] | 38.8 |
| COc1ccc(N2C(C)=CS/C2=C(/C#N)c2nnc(N3CCOCC3)n2-c2ccccc2)cc1 [(2Z)-2-[3-(4-methoxyphenyl)-4-methyl-1,3-thiazol-2-ylidene]-2-(5-morpholin-4-yl-4-phenyl-1,2,4-triazol-3-yl)acetonitrile] | > 10000 |
| CC(C)C(OC(=O)CN1C(=O)COc2ccccc21)C(=O)NC1CCCC1 (stereo not drawn) [(3-Oxo-2,3-dihydro-benzo[1,4]oxazin-4-yl)-acetic acid 1-cyclopentylcarbamoyl-2-methyl-propyl ester] | > 10000 |
| Cc1cc(O)c(C=Nc2cccc(Cl)c2)c(=O)o1 [(3Z)-3-[(3-chloroanilino)methylene]-6-methyl-pyran-2,4-quinone] | > 10000 |

Same assay, conditions: inactive by the depositor's call

| SMILES | IC50 [µM] |
| --- | --- |
| O=C(O)c1cccn2c(=O)c3ccccc3nc12 [11-Oxo-11H-pyrido[2,1-b]quinazoline-6-carboxylic acid] | 66.7 |
| Clc1ccc2c(c1)[C@H]1OCC[C@H]1[C@@H](c1ccco1)N2 [(3aS,4S,9bS)-8-chloranyl-4-(furan-2-yl)-2,3,3a,4,5,9b-hexahydrofuro[3,2-c]quinoline] | 24.4 |
| CCC(=O)Oc1ccc2c(C)cc(=O)oc2c1C [(4,8-dimethyl-2-oxidanylidene-chromen-7-yl) propanoate] | 29.9 |
